Among the data in patent US7750003B2, “Compounds-943” (AstraZeneca AB, priority 2006, dated 2010) are IC50 values, retold here.

pIC50: −log10 of the molar value.

The test system of the experiment is phosphorylation of Serine 473 in Akt in MDA-MB-468 human breast adenocarcinoma cells. Description: In vitro phospho-Ser473 Akt assay (Test (c)). Format: cell-based. Particulars: Homo sapiens, MDA-MB-468, 2 h, MDA-MB-468 cells, 2 hours incubation; read-out: Test (c): IC50 versus Serine 473 in Akt. The procedure:
(c) In Vitro Phospho-Ser473 Akt Assay
This assay determines the ability of test compounds to inhibit phosphorylation of Serine 473 in Akt as assessed using Acumen Explorer technology (Acumen Bioscience Limited), a plate reader that can be used to rapidly quantitate features of images generated by laser-scanning.
A MDA-MB-468 human breast adenocarcinoma cell line (LGC Promochem, Teddington, Middlesex, UK, Catalogue No. HTB-132) was routinely maintained at 37° C. with 5% CO2 up to a confluency of 70-90% in DMEM containing 10% heat-inactivated FCS and 1% L-glutamine.
For the assay, the cells were detached from the culture flask using ‘Accutase’ (Innovative Cell Technologies Inc., San Diego, Calif., USA; Catalogue No. AT104) using standard tissue culture methods and resuspended in media to give 1.7×10^5 cells per mL. Aliquots (90 μl) were seeded into each of the inner 60 wells of a black Packard 96 well plate (PerkinElmer, Boston, Mass., USA; Catalogue No. 6005182) to give a density of 15000 cells per well. Aliquots (90 μl) of culture media were placed in the outer wells to prevent edge effects. The cells were incubated overnight at 37° C. with 5% CO2 to allow them to adhere.
On day 2, the cells were treated with test compounds and incubated for 2 hours at 37° C. with 5% CO2. Test compounds were prepared as 10 mM stock solutions in DMSO and serially diluted as required with growth media to give a range of concentrations that were 10-fold the required final test concentrations. Aliquots (10 μl) of each compound dilution were placed in a well (in triplicate) to give the final required concentrations. As a minimum response control, each plate contained wells having a final concentration of 100 μM LY294002 (Calbiochem, Beeston, UK, Catalogue No. 440202). As a maximum response control, wells contained 1% DMSO instead of test compound. Following incubation, the contents of the plates were fixed by treatment with a 1.6% aqueous formaldehyde solution (Sigma, Poole, Dorset, UK, Catalogue No. F1635) at room temperature for 1 hour.
All subsequent aspiration and wash steps were carried out using a Tecan 96 well plate washer (aspiration speed 10 mm/sec). The fixing solution was removed and the contents of the plates were washed with phosphate-buffered saline (PBS; 50 μl; Gibco, Catalogue No. 10010015). The contents of the plates were treated for 10 minutes at room temperature with an aliquot (50 μl) of a cell permeabilisation buffer consisting of a mixture of PBS and 0.5% Tween-20. The ‘permeabilisation’ buffer was removed and non-specific binding sites were blocked by treatment for 1 hour at room temperature of an aliquot (50 μl) of a blocking buffer consisting of 5% dried skimmed milk [‘Marvel’ (registered trade mark); Premier Beverages, Stafford, GB] in a mixture of PBS and 0.05% Tween-20. The ‘blocking’ buffer was removed and the cells were incubated for 1 hour at room temperature with rabbit anti phospho-Akt (Ser473) antibody solution (50 μl per well; Cell Signalling, Hitchin, Herts, U.K., Catalogue No 9277) that had been diluted 1:500 in ‘blocking’ buffer. Cells were washed three times in a mixture of PBS and 0.05% Tween-20. Subsequently, cells were incubated for 1 hour at room temperature with Alexafluor488 labelled goat anti-rabbit IgG (50 μl per well; Molecular Probes, Invitrogen Limited, Paisley, UK, Catalogue No. A11008) that had been diluted 1:500 in ‘blocking’ buffer. Cells were washed 3 times with a mixture of PBS and 0.05% Tween-20. An aliquot of PBS (50 μl) was added to each well and the plates were sealed with black plate sealers and the fluorescence signal was detected and analysed.
Fluorescence dose response data obtained with each compound were analysed and the degree of inhibition of Serine 473 in Akt was expressed as an IC50 value.
`C[C@H]1COCCN1c1cc(C(C)(C)S(C)(=O)=O)nc(-c2ccc(NC(=O)NCCCO)cc2)n1` [Example 24as, 3-(3-hydroxypropyl)-1-[4-[4-[(3S)-3-methylmorpholin-4-yl]-6-(2-methylsulfonylpropan-2-yl)pyrimidin-2-yl]phenyl]urea]: the pIC50 is 6.66.

`CC(C)CNC(=O)Nc1ccc(-c2nc(N3CCOC[C@@H]3C)cc(C(C)(C)S(C)(=O)=O)n2)cc1` [Example 24at, 1-[4-[4-[(3S)-3-methylmorpholin-4-yl]-6-(2-methylsulfonylpropan-2-yl)pyrimidin-2-yl]phenyl]-3-(2-methylpropyl)urea]: the pIC50 was 7.05.

With `C[C@H]1COCCN1c1cc(C(C)(C)S(C)(=O)=O)nc(-c2ccc(NC(=O)NCc3ncc[nH]3)cc2)n1` [Example 24au, 3-(1H-imidazol-2-ylmethyl)-1-[4-[4-[(3S)-3-methylmorpholin-4-yl]-6-(2-methylsulfonylpropan-2-yl)pyrimidin-2-yl]phenyl]urea], the pIC50 was 5.62.

`C[C@H]1COCCN1c1cc(C(C)(C)S(C)(=O)=O)nc(-c2ccc(NC(=O)NCc3cnn(C)c3)cc2)n1` [Example 24av, 1-[4-[4-[(3S)-3-methylmorpholin-4-yl]-6-(2-methylsulfonylpropan-2-yl)pyrimidin-2-yl]phenyl]-3-[(1-methylpyrazol-4-yl)methyl]urea]: the pIC50 is 5.31.

As for `Cc1cc(CNC(=O)Nc2ccc(-c3nc(N4CCOC[C@@H]4C)cc(C(C)(C)S(C)(=O)=O)n3)cc2)no1` [Example 24aw, 3-[4-[4-[(3S)-3-methylmorpholin-4-yl]-6-(2-methylsulfonylpropan-2-yl)pyrimidin-2-yl]phenyl]-1-[(5-methyl-1,2-oxazol-3-yl)methyl]urea], the pIC50 was 5.47.

As for `CC(NC(=O)Nc1ccc(-c2nc(N3CCOC[C@@H]3C)cc(C(C)(C)S(C)(=O)=O)n2)cc1)c1cccnc1` (stereo partly drawn) [Example 24ax, 1-[4-[4-[(3S)-3-methylmorpholin-4-yl]-6-(2-methylsulfonylpropan-2-yl)pyrimidin-2-yl]phenyl]-3-(1-pyridin-3-ylethyl)urea], the pIC50 is 6.19.

`C[C@H]1COCCN1c1cc(C(C)(C)S(C)(=O)=O)nc(-c2ccc(NC(=O)NCc3cc[nH]n3)cc2)n1` [Example 24ay, 1-[4-[4-[(3S)-3-methylmorpholin-4-yl]-6-(2-methylsulfonylpropan-2-yl)pyrimidin-2-yl]phenyl]-3-(1H-pyrazol-3-ylmethyl)urea]: the pIC50 was 5.10.

`C[C@H]1COCCN1c1cc(C(C)(C)S(C)(=O)=O)nc(-c2ccc(NC(=O)NCc3ccn(C)n3)cc2)n1` [Example 24az, 1-[4-[4-[(3S)-3-methylmorpholin-4-yl]-6-(2-methylsulfonylpropan-2-yl)pyrimidin-2-yl]phenyl]-3-[(1-methylpyrazol-3-yl)methyl]urea]: the pIC50 is 5.25.

With `C[C@H]1COCCN1c1cc(C(C)(C)S(C)(=O)=O)nc(-c2ccc(NC(=O)N(C)C)cc2)n1` [Example 24ba, 1,1-dimethyl-3-[4-[4-[(3S)-3-methylmorpholin-4-yl]-6-(2-methylsulfonylpropan-2-yl)pyrimidin-2-yl]phenyl]urea], the pIC50 is 5.29.

Regarding `C[C@H]1COCCN1c1cc(C(C)(C)S(C)(=O)=O)nc(-c2ccc(NC(=O)N3CCOCC3)cc2)n1` [Example 24bb, N-[4-[4-[(3S)-3-methylmorpholin-4-yl]-6-(2-methylsulfonylpropan-2-yl)pyrimidin-2-yl]phenyl]morpholine-4-carboxamide], the pIC50 is 5.11.

For `C[C@H]1COCCN1c1cc(C(C)(C)S(C)(=O)=O)nc(-c2ccc(NC(=O)N3CCC(O)CC3)cc2)n1` [Example 24bc, 4-hydroxy-N-[4-[4-[(3S)-3-methylmorpholin-4-yl]-6-(2-methylsulfonylpropan-2-yl)pyrimidin-2-yl]phenyl]piperidine-1-carboxamide], the pIC50 is 6.16.

In the case of `C[C@H]1COCCN1c1cc(C(C)(C)S(C)(=O)=O)nc(-c2ccc(NC(=O)N3CCCC(O)C3)cc2)n1` (stereo partly drawn) [Example 24bd, 3-hydroxy-N-[4-[4-[(3S)-3-methylmorpholin-4-yl]-6-(2-methylsulfonylpropan-2-yl)pyrimidin-2-yl]phenyl]piperidine-1-carboxamide], the pIC50 was 5.49.

Take `C[C@H]1COCCN1c1cc(C(C)(C)S(C)(=O)=O)nc(-c2ccc(NC(=O)N3CCC3)cc2)n1` [Example 24be, N-[4-[4-[(3S)-3-methylmorpholin-4-yl]-6-(2-methylsulfonylpropan-2-yl)pyrimidin-2-yl]phenyl]azetidine-1-carboxamide]: the pIC50 was 5.31.

Regarding `C[C@H]1COCCN1c1cc(C(C)(C)S(C)(=O)=O)nc(-c2ccc(NC(=O)N3CC(O)C3)cc2)n1` [Example 24bf, 3-hydroxy-N-[4-[4-[(3S)-3-methylmorpholin-4-yl]-6-(2-methylsulfonylpropan-2-yl)pyrimidin-2-yl]phenyl]azetidine-1-carboxamide], the pIC50 is 5.17.

For the compound `C[C@H]1COCCN1c1cc(C(C)(C)S(C)(=O)=O)nc(-c2ccc(NC(=O)N(C)C3CC3)cc2)n1` [Example 24bg, 1-cyclopropyl-1-methyl-3-[4-[4-[(3S)-3-methylmorpholin-4-yl]-6-(2-methylsulfonylpropan-2-yl)pyrimidin-2-yl]phenyl]urea], the negative-log IC50 (pIC50) was 5.62.

For `CC(=O)NCCS(=O)(=O)Cc1cc(N2CCOC[C@@H]2C)nc(-c2ccc(NC(=O)Nc3ccon3)cc2)n1` [Example 40, N-[2-[[6-[(3S)-3-methylmorpholin-4-yl]-2-[4-(1,2-oxazol-3-ylcarbamoylamino)phenyl]pyrimidin-4-yl]methylsulfonyl]ethyl]acetamide], the pIC50 is 7.00.

As to `C[C@H]1COCCN1c1cc(CS(=O)(=O)CCO)nc(-c2ccc(NC(=O)Nc3ccon3)cc2)n1` [Example 40a, 1-[4-[4-(2-hydroxyethylsulfonylmethyl)-6-[(3S)-3-methylmorpholin-4-yl]pyrimidin-2-yl]phenyl]-3-(1,2-oxazol-3-yl)urea], the pIC50 was 7.26.

On to `C[C@H]1COCCN1c1cc(C(C)(C)O)nc(-c2ccc(NC(=O)Nc3ccon3)cc2)n1` [Example 41, 1-[4-[4-(2-Hydroxypropan-2-yl)-6-[(3S)-3-methylmorpholin-4-yl]pyrimidin-2-yl]phenyl]-3-(1,2-oxazol-3-yl)urea], for which the pIC50 was 7.33.

On to `Cc1nnc(S(=O)(=O)Cc2cc(N3CCOC[C@@H]3C)nc(-c3ccc(NC(=O)NC4CC4)cc3)n2)s1` [Example 43g, 3-cyclopropyl-1-[4-[4-[(3S)-3-methylmorpholin-4-yl]-6-[(5-methyl-1,3,4-thiadiazol-2-yl)sulfonylmethyl]pyrimidin-2-yl]phenyl]urea], for which the pIC50 is 5.72.

As for `C[C@H]1COCCN1c1cc(CS(=O)(=O)C23CC4CC(CC(C4)C2)C3)nc(-c2ccc(NC(=O)NC3CC3)cc2)n1` [Example 43k, 1-[4-[4-(1-adamantylsulfonylmethyl)-6-[(3S)-3-methylmorpholin-4-yl]pyrimidin-2-yl]phenyl]-3-cyclopropyl-urea], the pIC50 is 5.54.

`C[C@H]1COCCN1c1cc(CS(=O)(=O)c2ccncc2)nc(-c2ccc(NC(=O)NC3CCC3)cc2)n1` [Example 48, 3-Cyclobutyl-1-[4-[4-[(3S)-3-methylmorpholin-4-yl]-6-(pyridin-4-ylsulfonylmethyl)pyrimidin-2-yl]phenyl]urea]: the pIC50 was 7.42.

In the case of `CCNC(=O)Nc1ccc(-c2nc(CS(=O)(=O)c3ccncc3)cc(N3CCOC[C@@H]3C)n2)cc1` [Example 48a, 3-ethyl-1-[4-[4-[(3S)-3-methylmorpholin-4-yl]-6-(pyridin-4-ylsulfonylmethyl)pyrimidin-2-yl]phenyl]urea], the pIC50 was 6.60.

Usually pIC50 stands for −log10 of the IC50, conventionally taken in molar units.
